Results from patent publication US8658637B2, “Glucocorticoid mimetics, methods of making them, pharmaceutical compositions and uses thereof” (Boehringer Ingelheim International GmbH, priority 2006, dated 2014).

Tested on: IL-6 production in human foreskin fibroblast cells
Assay: Inhibition of IL-6 Production in Fibroblasts (Cell Assay for Transrepression)
Format: cell-based
Settings: IL-1 stimulated human foreskin fibroblasts; for EC50: read-out: agonistic activity (EC50) by inhibiting IL-6 production in Fibroblasts; for Emax: read-out: efficacy by inhibiting IL-6 production in Fibroblasts
Procedure: 2. Inhibition of IL-6 Production in Fibroblasts (Cell Assay for Transrepression)
Human foreskin fibroblast cells produce IL-6 in response to stimulation by proinflammatory cytokine IL-1.
Human foreskin fibroblast cells (ATCC Cat. No. CRL-2429) are plated on 96 well plates at 5,000 cells per well the day before use, in Iscove's Modified Dulbecco's Media (GibcoBRL Life Technologies Cat. No. 12440-053) supplemented with 10% charcoal filtered FBS (Clonetech Cat. No. SH30068) and Gentamycin (GibcoBRL Life Technologies Cat. No. 15710-064). On the next day, media in the wells is replaced with fresh media. Cells are treated with IL-1 (rhIL-1α, R&D Systems Cat. No. 200-LA) to a final concentration of 1 ng/mL, and with test compounds to final concentrations of 10^−5 M to 10^−8 M, in a total volume of 200 μL per well. Samples are done in duplicates. […] Positive control wells receive IL-1 only and represent maximum (or 100%) amount of IL-6 production. Plates are incubated at 37° C. overnight (15 to 18 hours), and supernatants are harvested at the end of incubation. IL-6 levels in the supernatants are determined by the ELISA kits for IL-6 (MedSystems Diagnostics GmbH, Vienna, Austria, Cat. No. BMS213TEN) according to manufacture's instructions. The extent of inhibition of IL-6 by test compounds is expressed in percentage relative to positive controls. IC50 values of test compounds are derived by non-linear curve fitting.

Compound: C=CCn1cc(C(O)(c2ccc3c(cnn3-c3ccc(F)cc3)c2)C(F)(F)F)c2ccc(Br)cc21 (stereo not shown) [1-(1-Allyl-6-bromo-1H-indol-3-yl)-2,2,2-trifluoro-1-[1-(4-fluorophenyl)-1H-indazol-5-yl]ethanol]
- EC50: ≤ 1000 nM
- Emax: > 50%

Compound: C=CCCn1cc(C(O)(c2ccc3c(cnn3-c3ccc(F)cc3)c2)C(F)(F)F)c2ccccc21 (stereo not shown) [1-(1-But-3-enyl-1H-indol-3-yl)-2,2,2-trifluoro-1-[1-(4-fluorophenyl)-1H-indazol-5-yl]ethanol]
- EC50: ≤ 1000 nM
- Emax: > 50%

Compound: N#Cc1nn(CC(O)CO)cc1C(O)(c1ccc2c(cnn2-c2ccc(F)cc2)c1)C(F)(F)F (stereo not shown) [1-(2,3-Dihydroxypropyl)-4-{2,2,2-trifluoro-1-[1-(4-fluorophenyl)-1H-indazol-5-yl]-1-hydroxyethyl}-1H-pyrazole-3-carbonitrile]
- EC50: ≤ 1000 nM
- Emax: > 50%

Compound: CCOC(=O)c1cc(C(O)(c2ccc3c(cnn3-c3ccc(F)cc3)c2)C(F)(F)F)cn1CC(O)CO (stereo not shown) [1-(2,3-Dihydroxypropyl)-4-{2,2,2-trifluoro-1-[1-(4-fluorophenyl)-1H-indazol-5-yl]-1-hydroxyethyl}-1H-pyrrole-2-carboxylic acid ethyl ester]
- EC50: ≤ 1000 nM
- Emax: > 50%

Compound: C=CCCn1cc(C(O)(c2ccc3c(cnn3-c3ccc(F)cc3)c2)C(F)(F)F)c2ccc(Br)cc21 (stereo not shown) [1-(6-Bromo-1-but-3-enyl-1H-indol-3-yl)-2,2,2-trifluoro-1-[1-(4-fluorophenyl)-1H-indazol-5-yl]ethanol]
- EC50: ≤ 1000 nM
- Emax: > 50%

Compound: OC(c1ccc2c(cnn2-c2ccc(F)cc2)c1)(c1c[nH]c2c(Cl)nccc12)C(F)(F)F (stereo not shown) [1-(7-Chloro-1H-pyrrolo[2,3-c]pyridin-3-yl)-2,2,2-trifluoro-1-[1-(4-fluorophenyl)-1H-indazol-5-yl]ethanol]
- EC50: ≤ 1000 nM
- Emax: > 50%

Compound: C=CCn1cc(C(O)(c2ccc3c(cnn3-c3ccc(F)cc3)c2)C(F)(F)F)c(C#N)n1 (stereo not shown) [1-Allyl-4-{2,2,2-trifluoro-1-[1-(4-fluorophenyl)-1H-indazol-5-yl]-1-hydroxyethyl}-1H-pyrazole-3-carbonitrile]
- EC50: ≤ 1000 nM
- Emax: > 50%

Compound: C=CCn1cc(C(O)(c2ccc3c(cnn3-c3ccc(F)cc3)c2)C(F)(F)F)cc1C(=O)OCC (stereo not shown) [1-Allyl-4-{2,2,2-trifluoro-1-[1-(4-fluorophenyl)-1H-indazol-5-yl]-1-hydroxyethyl}-1H-pyrrole-2-carboxylic acid ethyl ester]
- EC50: ≤ 1000 nM
- Emax: > 50%

Compound: C=CCn1cc(C(O)(c2ccc3c(cnn3-c3ccc(F)cc3)c2)C(F)(F)F)c2ccn(C)c(=O)c21 (stereo not shown) [1-Allyl-6-methyl-3-{2,2,2-trifluoro-1-[1-(4-fluorophenyl)-1H-indazol-5-yl]-1-hydroxyethyl}-1,6-dihydropyrrolo[2,3-c]pyridin-7-one]
- EC50: ≤ 1000 nM
- Emax: > 50%

Compound: CC1(C)OCC(Cn2cc(C(O)(c3ccn4c(-c5ccc(F)cc5)ncc4c3)C(F)(F)F)c3ccccc32)O1 (stereo not shown) [1-[1-(2,2-Dimethyl-1,3-dioxolan-4-ylmethyl)-1H-indol-3-yl]-2,2,2-trifluoro-1-[3-(4-fluorophenyl)imidazo[1,5-a]pyridin-7-yl]ethanol]
- EC50: ≤ 1000 nM
- Emax: > 50%

Compound: OCCn1cc(C(O)(c2ccc3c(cnn3-c3ccc(F)cc3)c2)C(F)(F)F)c2ncnc(Cl)c21 (stereo not shown) [1-[4-Chloro-5-(2-hydroxyethyl)-5H-pyrrolo[3,2-d]pyrimidin-7-yl]-2,2,2-trifluoro-1-[1-(4-fluorophenyl)-1H-indazol-5-yl]ethanol]
- EC50: ≤ 1000 nM
- Emax: > 50%

Compound: Cn1cc(C(O)(c2ccc3c(cnn3-c3cccnc3)c2)C(F)(F)F)c2ccccc21 (stereo not shown) [2,2,2-Trifluoro-1-(1-methyl-1H-indol-3-yl)-1-(1-pyridin-3-yl-1H-indazol-5-yl)ethanol]
- EC50: ≤ 1000 nM
- Emax: > 50%

Compound: Cn1cc(C(O)(c2ccc3c(cnn3-c3ccsc3)c2)C(F)(F)F)c2ccccc21 (stereo not shown) [2,2,2-Trifluoro-1-(1-methyl-1H-indol-3-yl)-1-(1-thiophen-3-yl-1H-indazol-5-yl)ethanol]
- EC50: ≤ 1000 nM
- Emax: > 50%

Compound: Cn1cc(-n2ncc3cc(C(O)(c4cn(C)c5ccccc45)C(F)(F)F)ccc32)cn1 (stereo not shown) [2,2,2-Trifluoro-1-(1-methyl-1H-indol-3-yl)-1-[1-(1-methyl-1H-pyrazol-4-yl)-1H-indazol-5-yl]ethanol]
- EC50: ≤ 1000 nM
- Emax: > 50%

Compound: Cn1cc(C(O)(c2ccc3c(c2)nnn3-c2ccc(F)cc2)C(F)(F)F)c2ccccc21 (stereo not shown) [2,2,2-Trifluoro-1-[1-(4-fluorophenyl)-1H-benzotriazol-5-yl]-1-(1-methyl-1H-indol-3-yl)ethanol]
- EC50: ≤ 1000 nM
- Emax: > 50%

Compound: OC(c1ccc2c(cnn2-c2ccc(F)cc2)c1)(c1c[nH]c2ncccc12)C(F)(F)F (stereo not shown) [2,2,2-Trifluoro-1-[1-(4-fluorophenyl)-1H-indazol-5-yl]-1-(1H-pyrrolo[2,3-b]pyridin-3-yl)ethanol]
- EC50: ≤ 1000 nM
- Emax: > 50%

Compound: COc1nccc2c(C(O)(c3ccc4c(cnn4-c4ccc(F)cc4)c3)C(F)(F)F)c[nH]c12 (stereo not shown) [2,2,2-Trifluoro-1-[1-(4-fluorophenyl)-1H-indazol-5-yl]-1-(7-methoxy-1H-pyrrolo[2,3-c]pyridin-3-yl)ethanol]
- EC50: ≤ 1000 nM
- Emax: > 50%

Compound: [O-][n+]1cccc2c(C(O)(c3ccc4c(cnn4-c4ccc(F)cc4)c3)C(F)(F)F)c[nH]c21 (stereo not shown) [2,2,2-Trifluoro-1-[1-(4-fluorophenyl)-1H-indazol-5-yl]-1-(7-oxy-1H-pyrrolo[2,3-b]pyridin-3-yl)ethanol]
- EC50: ≤ 1000 nM
- Emax: > 50%

Compound: OC(c1ccc2c(cnn2-c2ccc(F)cc2)c1)(c1cn(CCN2CCOCC2)c2ccccc12)C(F)(F)F (stereo not shown) [2,2,2-Trifluoro-1-[1-(4-fluorophenyl)-1H-indazol-5-yl]-1-[1-(2-morpholin-4-ylethyl)-1H-indol-3-yl]ethanol]
- EC50: ≤ 1000 nM
- Emax: > 50%

Compound: OC(c1ccc2c(cnn2-c2ccc(F)cc2)c1)(c1cn(CC2CCCO2)c2ccccc12)C(F)(F)F (stereo not shown) [2,2,2-Trifluoro-1-[1-(4-fluorophenyl)-1H-indazol-5-yl]-1-[1-(tetrahydro-furan-2-ylmethyl)-1H-indol-3-yl]ethanol]
- EC50: ≤ 1000 nM
- Emax: > 50%

Compound: Cn1cc(C(O)(c2ccc3c(cnn3-c3ccc(F)nc3)c2)C(F)(F)F)c2ccccc21 (stereo not shown) [2,2,2-Trifluoro-1-[1-(6-fluoropyridin-3-yl)-1H-indazol-5-yl]-1-(1-methyl-1H-indol-3-yl)ethanol]
- EC50: ≤ 1000 nM
- Emax: > 50%

Compound: Cn1cc(C(O)(c2ccn3c(-c4ccc(F)cc4)ncc3c2)C(F)(F)F)c2ccccc21 (stereo not shown) [2,2,2-Trifluoro-1-[3-(4-fluorophenyl)imidazo[1,5-a]pyridin-7-yl]-1-(1-methyl-1H-indol-3-yl)ethanol]
- EC50: ≤ 1000 nM
- Emax: > 50%

Compound: NC(=O)Cn1cc(C(O)(c2ccc3c(cnn3-c3ccc(F)cc3)c2)C(F)(F)F)c2cccnc21 (stereo not shown) [2-(3-{2,2,2-Trifluoro-1-[1-(4-fluorophenyl)-1H-indazol-5-yl]-1-hydroxyethyl}pyrrolo[2,3-b]pyridin-1-yl)acetamide]
- EC50: ≤ 1000 nM
- Emax: > 50%

Compound: CNC(=O)Cn1cc(C(O)(c2ccc3c(cnn3-c3ccc(F)cc3)c2)C(F)(F)F)c2ccc(Br)cc21 (stereo not shown) [2-(6-Bromo-3-{2,2,2-trifluoro-1-[1-(4-fluorophenyl)-1H-indazol-5-yl]-1-hydroxyethyl}indol-1-yl)-N-methylacetamide]
- EC50: ≤ 1000 nM
- Emax: > 50%

Compound: Cn1ccc2c(C(O)(c3ccc4c(cnn4-c4ccc(F)cc4)c3)C(F)(F)F)cn(CC(N)=O)c2c1=O (stereo not shown) [2-(6-Methyl-7-oxo-3-{2,2,2-trifluoro-1-[1-(4-fluorophenyl)-1H-indazol-5-yl]-1-hydroxyethyl}-6,7-dihydropyrrolo[2,3-c]pyridin-1-yl)acetamide]
- EC50: ≤ 1000 nM
- Emax: > 50%

Compound: NC(=O)Cn1cc(C(O)(c2ccc3c(cnn3-c3ccc(F)cc3)c2)C(F)(F)F)c2ccnc(Cl)c21 (stereo not shown) [2-(7-Chloro-3-{2,2,2-trifluoro-1-[1-(4-fluorophenyl)-1H-indazol-5-yl]-1-hydroxyethyl}pyrrolo[2,3-c]pyridin-1-yl)acetamide]
- EC50: ≤ 1000 nM
- Emax: > 50%

Compound: NC(=O)Cn1cc(C(O)(c2ccc3c(cnn3-c3cccnc3)c2)C(F)(F)F)c2ccccc21 (stereo not shown) [2-{3-[2,2,2-Trifluoro-1-hydroxy-1-(1-pyridin-3-yl-1H-indazol-5-yl)ethyl]indol-1-yl}acetamide]
- EC50: ≤ 1000 nM
- Emax: > 50%

Compound: OCC(O)Cn1cc(C(O)(c2ccc3c(c2)nnn3-c2ccc(F)cc2)C(F)(F)F)c2ccccc21 (stereo not shown) [3-(3-{2,2,2-Trifluoro-1-[1-(4-fluorophenyl)-1H-benzotriazol-5-yl]-1-hydroxyethyl}indol-1-yl)propane-1,2-diol]
- EC50: ≤ 1000 nM
- Emax: > 50%

Compound: NC(=O)CCn1cc(C(O)(c2ccc3c(cnn3-c3ccc(F)cc3)c2)C(F)(F)F)c2ccccc21 (stereo not shown) [3-(3-{2,2,2-Trifluoro-1-[1-(4-fluorophenyl)-1H-indazol-5-yl]-1-hydroxyethyl}indol-1-yl)propionamide]
- EC50: ≤ 1000 nM
- Emax: > 50%
